Here are results for three compounds from publication PMC11684530 (ACS Omega, 2024).

The target of the experiment is T1, COX-2 (cyclooxygenase-2) (Homo sapiens, UniProt P35354).
T1 sequence (P35354 18-604): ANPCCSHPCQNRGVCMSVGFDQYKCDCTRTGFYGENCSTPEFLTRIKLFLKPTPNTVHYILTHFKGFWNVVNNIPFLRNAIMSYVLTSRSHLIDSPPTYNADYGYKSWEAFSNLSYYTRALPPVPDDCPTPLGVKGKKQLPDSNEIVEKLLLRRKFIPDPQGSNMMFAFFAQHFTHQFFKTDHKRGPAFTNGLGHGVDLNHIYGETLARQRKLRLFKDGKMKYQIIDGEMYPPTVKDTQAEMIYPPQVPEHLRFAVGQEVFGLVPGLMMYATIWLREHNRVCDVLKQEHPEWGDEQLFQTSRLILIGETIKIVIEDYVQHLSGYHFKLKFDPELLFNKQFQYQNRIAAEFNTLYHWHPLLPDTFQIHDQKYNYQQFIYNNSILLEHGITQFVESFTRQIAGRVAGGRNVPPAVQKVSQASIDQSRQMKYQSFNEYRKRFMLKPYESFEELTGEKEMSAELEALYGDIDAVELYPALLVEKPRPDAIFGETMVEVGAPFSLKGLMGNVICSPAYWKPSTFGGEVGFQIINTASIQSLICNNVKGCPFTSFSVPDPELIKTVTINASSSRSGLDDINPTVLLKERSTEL
The experiment can be described thus: fluorometric COX-2 inhibitor screening kit. Type of experiment: biochemical.

The compound `O=c1cc(-c2ccccc2)oc2cc(O)c(CCO)c(O)c12` [1a, 5,7-Dihydroxy-6-(2-hydroxyethyl)-2-phenyl-4H-chromen-4-one] showed an IC50 of 9.63 µM.

Turning to `O=c1cc(-c2ccccc2)oc2cc(O)cc(O)c12` [chrysin], inhibition was half-maximal at 18.5 µM (IC50).

`CC(C)=CCc1c(O)cc(O)c2c(=O)cc(-c3ccccc3)oc12` [compound 8, 5,7-Dihydroxy-8-(3-methylbut-2-en-1-yl)-2-phenyl-4H-chromen-4-one] returned an IC50 of 6.76 µM.
